# Laboratory results taken from patent US7410955B2, “Therapeutic use of agonist ligands specific to G2A receptor” (Biosynergen, Inc., priority 2002, dated 2008).
# Tests used:
# [1] = test system: neutrophils; test: Bactericidal activity of neutrophils from bacteria-induced sepsis model mice; type: cell-based; conditions: 30 μM 1-stearoyl LPC for 1 hour after E. coli ingestion, 1 hour killing time; vs PBS control
# Procedure: ICR mice (25-30 g in body weight; MJ Ltd.) were intraperitoneally injected with alive 10^8 cells/ml E. coli (DH5a) that were suspended in 0.5 ml of PBS (phosphate-buffered saline) to cause peritonitis, thereby inducing sepsis.
# The isolated neutrophils were adhered to the cover slip coated with poly-L-Lysine (0.01%) in a cell incubator maintained at 37° C., at a cell concentration of 10^6 cells/ml for 1 hour. Thereafter, E. coli was added thereto in a concentration of 10^6 cells/ml and cultured for 1 hour. E. coli cells that were not ingested by neutrophils were removed by washing the cover slip with PBS buffer. The cover slip was then treated with […] 1-stearoyl LPC, and further cultured for another 1 hour. In this stage, the cover slip of the control group was treated with PBS buffer, instead of LPC. Thereafter, after the exchange of a new RPMI-1640 medium, they were further cultured for 1 hour to give killing time. Then, the neutrophils were broken using Triton X-100 (0.05%), and accordingly E. coli cells were recovered. The recovered E. coli cells were spread onto a plate and cultured in an incubator maintained at 37° C. The number of E. coli cells that had grown on the medium was counted and subjected to statistical analysis. […]
# [2] = test system: neutrophils; test: Inhibition of anti-apoptosis of neutrophils by inflammation mediators (AcOr/EtBr staining); type: cell-based, human; conditions: 15 μM and 30 μM
# From the text: Neutrophils were isolated from healthy adults using discontinuous percoll gradient according to the method of Szucs, S. et al. (J. Immunol. Methods, 167: 245-251, 1994). First, plasmas were separated from heparinized whole blood, and red blood cells were depleted by dextran sedimentation. Thereafter, leukocytes were layered over a percoll gradient with densities of 1.077 and 1.094 (Pharmacia, Sweden). Separated neutrophil layers were recovered from the percoll gradient interface, and then washed with HBSS (Hank's balanced salt solution, Sigma Chemical Co., USA). The remaining pellet was resuspended in RPMI 1640 medium supplemented with 10% FBS (fetal bovine serum) and 2 mM gentamicin. As a result of the examination of the cytospin stained with Wright-Giemsa (Sigma Chemical Co., USA), it was observed that the resuspension solution contained 95% or more neutrophils. Also, as a result of examination using trypan blue dye exclusion method, 98% or more neutrophils were observed.
# 1×10^5 neutrophil cells isolated in above Example <1-1> were cultured in a 96-well plate to which RPMI1640 medium containing 10% FBS was added. Thereafter, they were treated with 1-stearoyl lysophosphatidylcoline (Sigma Chemical Co., USA) in concentrations of 15 μM and 30 μM, respectively. After 1 hour, they were treated with 1 μg/ml LPS (Sigma Chemical Co.). After 24 hours, the medium was removed from the plats, and the remaining cells were washed twice with PBS (phosphate-buffered saline) buffer at 4° C. The cells adhered to the bottom of the plate were all scraped and put into a 1.5-ml eppendorf tube. Then, they were centrifuged at 2500 rpm for 5 min, and the supernatant was removed. Again, 0.1 ml of PBS buffer at 4° C. was added to the pellet, which was then well mixed using pipetting. To 25 μl of the cell suspension was added 2 μl of AcOr/EtBr dye solution in which 100 μg/ml of acridine orange (AcOr) and 100 μg/ml of ethidium bromide (EtBr) were mixed. Then, the percentage of apoptotic cells/total cells was calculated with observing the neutrophil cells under a fluorescence microscope. […]
# [3] = test system: monocytes (human PBMC); test: IL-8 release induced by LPS in monocytes (ELISA); type: cell-based; conditions: 15 μM and 30 μM, 1 hour before 1 μg/ml LPS, supernatant after 3 hours
# Procedure: Peripheral bloods were collected from a healthy person, put into a heparinized tube and then well mixed with 1× PBS buffer. Then, they were layered in Ficoll-Hypaque solution (density 1.077, Sigma Chemical Co., USA) and then centrifuged at 2500 rpm at 4° C. for 25 min. After the monocyte layer between Ficoll layer and plasma layer had been cautiously recovered, 1×PBS buffer was added thereto and mixed well. It was then centrifuged again at 2500 rpm at 4° C. for 25 min. Such centrifugation procedures were repeated twice until red blood cells were depleted. Thereafter, the pellet was cultured in FBS at 37° C. for 15 min and centrifuged at 2500 rpm for 10 min. Then, 1×PBS buffer was added again to the pellet. The isolated cells were layered in percoll solution (density 1.066) and then centrifuged at 2500 rpm at 4° C. for 30 min. After only monocyte layer had been recovered from the isolated layers, 1×PBS buffer was added thereto. They were centrifuged at 2500 rpm for 15 min. […]
# The neutrophils and monocytes isolated in Examples <2-1> and <2-2> above were cultured in a 96-well plate to which RPMI1640 medium containing 10% FBS was added, at a concentration of 1×10^5 cells/well/0.2 ml, respectively. […] Then, the level of IL-8 was measured using ELISA kit (Biosource, USA).
smiles,measurement,setting,value
"CCCCCCCCCCCCCCCCCC(=O)OCC(O)COP(=O)([O-])OCC[N+](C)(C)C (stereo not shown) [1-stearoyl LPC, 1-stearoyl (18:0) lysophosphatidylcholine]",number of alive E. coli recovered from neutrophils,[1],significantly decreased
same,percentage of neutrophil apoptosis (apoptotic cells/total cells) that had been decreased by LPS,"[2]; 1 hour before 1 μg/ml LPS, read after 24 hours",increased by 1-stearoyl LPC in a concentration-dependent manner
same,percentage of neutrophil apoptosis that had been decreased by endogenous inflammation mediators,"[2]; 100 ng/ml GM-CSF, 100 ng/ml G-CSF or 100 ng/ml IFN-γ instead of LPS",increased by 1-stearoyl LPC in a concentration-dependent manner
same,level of IL-8 release that had been increased by LPS in monocytes,[3],inhibited by LPC in a concentration-dependent manner
